biological target: T1, human TGR5 (Homo sapiens, UniProt Q8TDU6); assay: Cell-based TGR5 assay (cAMP generation, HTRF); conditions: HEK293 cells stably transfected with human TGR5; cAMP by HTRF; 30 minutes at 37° C.; read-out: pEC50 Human TGR5 (converted)
T1 construct: expressed in transfected cells; host or cells: HEK293
T1 sequence (Q8TDU6 1-330): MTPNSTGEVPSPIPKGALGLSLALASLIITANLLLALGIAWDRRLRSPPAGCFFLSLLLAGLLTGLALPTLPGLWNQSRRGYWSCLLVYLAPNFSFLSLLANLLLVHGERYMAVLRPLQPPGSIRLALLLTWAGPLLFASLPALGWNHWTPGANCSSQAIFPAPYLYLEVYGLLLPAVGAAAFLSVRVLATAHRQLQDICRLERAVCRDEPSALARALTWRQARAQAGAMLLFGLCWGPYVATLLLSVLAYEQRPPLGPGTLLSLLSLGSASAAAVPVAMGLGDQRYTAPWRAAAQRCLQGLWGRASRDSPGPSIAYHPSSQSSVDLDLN
Method: A primary cell-based assay utilized HEK293 cells stably transfected with a gene encoding human TGR5. Cells were treated with candidate TGR5 activators and assessed for increased intercellular levels of cAMP.
TGR5-mediated cAMP generation was measured using a homogeneous time resolved fluorescence (HTRF) detection method (Cisbio). Test compounds were dissolved in DMSO to a final concentration of 10 mM. Serial 3-fold dilutions of the stock solution were made in DMSO, and these solutions were diluted 100-fold into Hanks Balanced Salt Solution supplemented with 10 mM HEPES pH 7.4, 0.003% Tween 20 and 0.5 mM isobutyl methylxanthine. Five microliters of diluted test compounds were added to wells of a black 384 well plate.
Cells grown overnight at 37° C./5% CO2 were harvested and resuspended in Hanks Balanced Salt Solution containing 10 mM HEPES to a concentration of […]. Five microliters (2500 cells) were dispensed into each well of the 384 well plate containing compound dilutions and incubated at 37° C. for 30 minutes. Each compound was tested in duplicate at 12 concentrations ranging from 0.05 nM to 10 μM.
Following incubation with test compounds, cAMP was detected through the successive addition of 5 μL each of cAMP labeled with the modified allophyocyanin dye d2 (cAMP-d2) and cryptate-labeled anti-cAMP in lysis buffer, and reading HTRF per the manufacturer's instructions.
A standard curve was used to convert the raw HTRF data into [cAMP]. The concentration of cAMP was plotted against log [test compound] and the resulting curves were fit to a 3-parameter logistical equation using GraphPad Prism to determine pEC50 (the negative log of the EC50) and the magnitude of the response.

| SMILES | EC50 |
| --- | --- |
| N[C@@H]1[C@@H](O)[C@@H](O[C@@H]2[C@@H](O)[C@H](O[C@H]3O[C@H](CNC(=O)CCCCc4cc(Cl)c(COC5(c6cnccc6-c6ccccc6OC6CC6)CC5)cc4Cl)[C@@H](O)[C@H](O)[C@H]3O)[C@@H](N)C[C@H]2N)O[C@H](CO)[C@H]1O (stereo in doubt) [Compound I-181, N-{[(2R,3S,4S,5R,6R)-6-{[(1R,2R,3S,4R,6S)-4,6-diamino-3-{[(2S,3R,4S,5S,6R)-4-amino-3,5-dihydroxy-6-(hydroxymethyl)oxan-2-yl]oxy}-2-hydroxycyclohexyl]oxy}-3,4,5-trihydroxyoxan-2-yl]methyl}-5-[2,5-dichloro-4-({1-[4-(2-cyclopropoxyphenyl)pyridin-3-yl]cyclopropoxy}methyl)phenyl]pentanamide] | < 100 nM |
| O=C(O)COCC(=O)N(CCCCc1cc(Cl)c(COC2(c3cnccc3-c3ccccc3OC3CC3)CC2)cc1Cl)C[C@H](O)[C@@H](O)[C@H](O)[C@H](O)CO (stereo in doubt) [Compound I-186, 2-[({4-[2,5-dichloro-4-({1-[4-(2-cyclopropoxyphenyl)pyridin-3-yl]cyclopropoxy}methyl)phenyl]butyl}[(2S,3R,4R,5R)-2,3,4,5,6-pentahydroxyhexyl]carbamoyl)methoxy]acetic acid] | 126 to 1000 nM |
| O=C(O)CCC(=O)N(CCCCc1cc(Cl)c(COC2(c3cnccc3-c3ccccc3OC3CC3)CC2)cc1Cl)C[C@H](O)[C@@H](O)[C@H](O)[C@H](O)CO (stereo in doubt) [Compound I-187, 3-({4-[2,5-dichloro-4-({1-[4-(2-cyclopropoxyphenyl)pyridin-3-yl]cyclopropoxy}methyl)phenyl]butyl}[(2S,3R,4R,5R)-2,3,4,5,6-pentahydroxyhexyl]carbamoyl)propanoic acid] | < 100 nM |
| CN(CCCCc1cc(Cl)c(COC2(c3cnccc3-c3ccccc3OC3CC3)CC2)cc1Cl)C(=O)[C@@H](O)[C@@H](O)[C@H](O)[C@@H](O)CN1CCOCC1 (stereo in doubt) [Compound I-189, (2S,3S,4R,5S)-N-{4-[2,5-dichloro-4-({1-[4-(2-cyclopropoxyphenyl)pyridin-3-yl]cyclopropoxy}methyl)phenyl]butyl}-2,3,4,5-tetrahydroxy-N-methyl-6-(morpholin-4-yl)hexanamide] | < 100 nM |
| CC(C)N(CCCCc1cc(Cl)c(COC2(c3cnccc3-c3ccccc3OC3CC3)CC2)cc1Cl)C(=O)[C@@H](O)[C@@H](O)[C@H](O)[C@@H](O)CO (stereo in doubt) [Compound I-210, (2S,3S,4R,5S)-N-{4-[2,5-dichloro-4-({1-[4-(2-cyclopropoxyphenyl)pyridin-3-yl]cyclopropoxy}methyl)phenyl]butyl}-2,3,4,5,6-pentahydroxy-N-(propan-2-yl)hexanamide] | < 100 nM |
| CS(=O)(=O)CCN(CCCCCc1cc(Cl)c(COC2(c3cnccc3-c3ccccc3OC3CC3)CC2)cc1Cl)C(=O)[C@@H](O)[C@@H](O)[C@H](O)[C@@H](O)CO (stereo in doubt) [Compound I-226, (2S,3S,4R,5S)-N-{5-[2,5-dichloro-4-({1-[4-(2-cyclopropoxyphenyl)pyridin-3-yl]cyclopropoxy}methyl)phenyl]pentyl}-2,3,4,5,6-pentahydroxy-N-(2-methanesulfonylethyl)hexanamide] | < 100 nM |
| CCS(=O)(=O)CCN(CCCCCc1cc(Cl)c(COC2(c3cnccc3-c3ccccc3OC3CC3)CC2)cc1Cl)C(=O)[C@@H](O)[C@@H](O)[C@H](O)[C@@H](O)CO (stereo in doubt) [Compound I-227, (2S,3S,4R,5S)-N-{5-[2,5-dichloro-4-({1-[4-(2-cyclopropoxyphenyl)pyridin-3-yl]cyclopropoxy}methyl)phenyl]pentyl}-N-[2-(ethanesulfonyl)ethyl]-2,3,4,5,6-pentahydroxyhexanamide] | < 100 nM |

Results, then the compound that gave them:

| EC50 | SMILES |
| --- | --- |
| < 100 nM | CN(CCCCc1cc(Cl)c(COC2(c3cnccc3-c3ccccc3OC3CC3)CC2)cc1Cl)C(=O)[C@@H](O)[C@@H](O)[C@H](O)[C@@H](O)CO (stereo in doubt) [Compound I-184, (2S,3S,4R,5S)-N-{4-[2,5-dichloro-4-({1-[4-(2-cyclopropoxyphenyl)pyridin-3-yl]cyclopropoxy}methyl)phenyl]butyl}-2,3,4,5,6-pentahydroxy-N-methylhexanamide] |
| < 100 nM | O=C(NCCCCc1cc(Cl)c(COC2(c3cnccc3-c3ccccc3OC3CC3)CC2)cc1Cl)[C@@H](O)[C@@H](O)[C@H](O)[C@@H](O)CO (stereo in doubt) [Compound I-185, (2S,3S,4R,5S)-N-{4-[2,5-dichloro-4-({1-[4-(2-cyclopropoxyphenyl)pyridin-3-yl]cyclopropoxy}methyl)phenyl]butyl}-2,3,4,5,6-pentahydroxyhexanamide] |
| < 100 nM | Cc1cc(COC2(c3cnccc3-c3ccccc3OC3COC3)CC2)c(Cl)cc1CCCCNC(=O)NC[C@H](O)[C@@H](O)[C@H](O)[C@H](O)CO (stereo in doubt) [Compound I-190, 1-(4-{5-chloro-2-methyl-4-[(1-{4-[2-(oxetan-3-yloxy)phenyl]pyridin-3-yl}cyclopropoxy)methyl]phenyl}butyl)-3-[(2S,3R,4R,5R)-2,3,4,5,6-pentahydroxyhexyl]urea] |
| < 100 nM | CN(C[C@H](O)[C@@H](O)[C@H](O)[C@H](O)CO)C(=O)NS(=O)(=O)NCCCCc1cc(Cl)c(COC2(c3cnccc3-c3ccccc3OC3CC3)CC2)cc1Cl (stereo in doubt) [Compound I-194, 1-({4-[2,5-dichloro-4-({1-[4-(2-cyclopropoxyphenyl)pyridin-3-yl]cyclopropoxy}methyl)phenyl]butyl}sulfamoyl)-3-methyl-3-[(2S,3R,4R,5R)-2,3,4,5,6-pentahydroxyhexyl]urea] |
| 126 to 1000 nM | O=C(O)CNC(=O)N(CCCCc1cc(Cl)c(COC2(c3cnccc3-c3ccccc3OC3CC3)CC2)cc1Cl)C[C@H](O)[C@@H](O)[C@H](O)[C@H](O)CO (stereo in doubt) [Compound I-197, 2-[({4-[2,5-dichloro-4-({1-[4-(2-cyclopropoxyphenyl)pyridin-3-yl]cyclopropoxy}methyl)phenyl]butyl}[(2S,3R,4R,5R)-2,3,4,5,6-pentahydroxyhexyl]carbamoyl)amino]acetic acid] |
| < 100 nM | CN(CCCCc1cc(Cl)c(COC2(c3cnccc3-c3ccccc3OC3CC3)CC2)cc1Cl)C(=O)NC[C@H](O)[C@@H](O)[C@H](O)[C@H](O)CO (stereo in doubt) [Compound I-204, 1-{4-[2,5-dichloro-4-({1-[4-(2-cyclopropoxyphenyl)pyridin-3-yl]cyclopropoxy}methyl)phenyl]butyl}-1-methyl-3-[(2S,3R,4R,5R)-2,3,4,5,6-pentahydroxyhexyl]urea] |
| < 100 nM | NC(=O)CN(C[C@H](O)[C@@H](O)[C@H](O)[C@H](O)CO)C(=O)CCCCc1cc(Cl)c(COC2(c3cnccc3-c3ccccc3OC3CC3)CC2)cc1Cl (stereo in doubt) [Compound I-208, N-(carbamoylmethyl)-5-[2,5-dichloro-4-({1-[4-(2-cyclopropoxyphenyl)pyridin-3-yl]cyclopropoxy}methyl)phenyl]-N-[(2S,3R,4R,5R)-2,3,4,5,6-pentahydroxyhexyl]pentanamide] |
| < 100 nM | CCN(CCCCc1cc(Cl)c(COC2(c3cnccc3-c3ccccc3OC3CC3)CC2)cc1Cl)C(=O)[C@@H](O)[C@@H](O)[C@H](O)[C@@H](O)CO (stereo in doubt) [Compound I-209, (2S,3S,4R,5S)-N-{4-[2,5-dichloro-4-({1-[4-(2-cyclopropoxyphenyl)pyridin-3-yl]cyclopropoxy}methyl)phenyl]butyl}-N-ethyl-2,3,4,5,6-pentahydroxyhexanamide] |
| < 100 nM | CNC(=O)CN(C[C@H](O)[C@@H](O)[C@H](O)[C@H](O)CO)C(=O)CCCCc1cc(Cl)c(COC2(c3cnccc3-c3ccccc3OC3CC3)CC2)cc1Cl (stereo in doubt) [Compound I-219, 5-[2,5-dichloro-4-({1-[4-(2-cyclopropoxyphenyl)pyridin-3-yl]cyclopropoxy}methyl)phenyl]-N-[(methylcarbamoyl)methyl]-N-[(2S,3R,4R,5R)-2,3,4,5,6-pentahydroxyhexyl]pentanamide] |
| < 100 nM | O=C(NCCCCCc1cc(Cl)c(COC2(c3cnccc3-c3ccccc3OC3CC3)CC2)cc1Cl)NC[C@H](O)[C@@H](O)[C@H](O)[C@H](O)CO (stereo in doubt) [Compound I-225, 1-{5-[2,5-dichloro-4-({1-[4-(2-cyclopropoxyphenyl)pyridin-3-yl]cyclopropoxy}methyl)phenyl]pentyl}-3-[(2S,3R,4R,5R)-2,3,4,5,6-pentahydroxyhexyl]urea] |

Reference: patent US12084472B2 (Ardelyx, Inc., priority 2015, dated 2024)
